Target: T1, human mPGES-1 (Homo sapiens, UniProt O14684)
T1 construct: host or cells: microsomes
T1 sequence (O14684 1-152): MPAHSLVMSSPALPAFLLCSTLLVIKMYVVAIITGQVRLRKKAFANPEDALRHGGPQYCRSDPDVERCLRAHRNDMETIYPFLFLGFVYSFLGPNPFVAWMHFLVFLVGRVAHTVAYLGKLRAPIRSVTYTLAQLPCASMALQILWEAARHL
Test: Microsomal prostaglandin E synthase biochemical assay
Conditions: microsome preparation containing human mPGES-1; substrate PGH2 10.8 μM, GSH 2.5 mM, pH 6.8; PGE2 by HTRF; average of at least n=2
Method: Compounds were tested as inhibitors of microsomal prostaglandin E synthase activity in microsomal prostaglandin E synthase assays and whole cell assays. These assays measure prostaglandin E2 (PGE2) synthesis which is taken as a measure of prostaglandin E synthase activity. Microsomal prostaglandin E synthase biochemical assays used microsomal prostaglandin E synthase-1 in microsomal preparations. The source of the microsomes can be for example interleukin-1β-stimulated human A549 cells (which express human mPGES-1) or Sf9 cells transfected with plasmids encoding human mPGES-1 cDNA.
A solution of test compound was added to a diluted microsome preparation containing is human mPGES-1 and pre-incubated for 15 minutes in potassium phosphate buffer pH 6.8 with cofactor glutathione (GSH). Corresponding solutions without test compound were used as positive controls, and corresponding solutions without test compound and without microsomes were used as negative controls. The enzymatic reaction was then started by addition of the substrate PGH2 in an organic solution (dry acetonitrile).
The reaction was stopped after one minute by adding an acidic solution (pH 1.9) of ferric chloride and citrate (final concentrations 7 mM and 47 mM respectively), by which the PGH2 was sequestered (the PGH2 is reduced to mainly 12-hydroxy heptadecatrineoic acid (12-HHT) which is not detected by the subsequent PGE2 detection step). The resulting solution was then pH neutralized by addition of potassium phosphate buffer, prior to diluting an aliquot of the resulting solution in a weak potassium phosphate buffer (50 mM, pH 6.8) containing 0.2% BSA (w/v). […] The PGE2 formed was quantified by use of a commercial HTRF based kit (catalogue #62PG2PEC or #62P2APEC from Cisbio International). 100% activity was defined as the PGE2 production in positive controls subtracted by the PGE2 production in the negative controls. IC50 values were then determined using standard procedures.

Row | IC50 [nM] | Structure (SMILES)
1 | 50 | CC(C)C#Cc1ccc(C(=O)NS(=O)(=O)c2ccccc2S(N)(=O)=O)cc1OCC(F)F [Example 52, 3-(2,2-Difluoroethoxy)-4-(3-methylbut-1-ynyl)-N-(2-sulfamoylphenylsulfonyl)benzamide]
2 | 6.2 | NS(=O)(=O)c1ccccc1S(=O)(=O)NC(=O)c1ccc(C#Cc2ccccc2)c(OCCC(F)(F)F)c1 [Example 65, 4-(Phenylethynyl)-N-(2-sulfamoylphenylsulfonyl)-3-(3,3,3-trifluoropropoxy)benzamide]
3 | 7.3 | COc1cc(C(=O)NS(=O)(=O)c2ccccc2S(N)(=O)=O)ccc1C#Cc1ccc(C(F)(F)F)cc1 [Example 38, 3-Methoxy-N-(2-sulfamoylphenylsulfonyl)-4-((4-(trifluoromethyl)phenyl)ethynyl)benzamide]
4 | 37 | NS(=O)(=O)c1ccccc1S(=O)(=O)NC(=O)c1ccc(C#CCCCCCl)cc1 [Example 42, 4-(6-Chlorohex-1-ynyl)-N-(2-sulfamoylphenylsulfonyl)benzamide]
5 | 220 | NS(=O)(=O)c1ccccc1S(=O)(=O)NC(=O)c1ccc(C#CC(O)(C2CC2)C2CC2)cc1 [Example 31, 4-(3,3-Dicyclopropyl-3-hydroxyprop-1-ynyl)-N-(2-sulfamoylphenylsulfonyl)benzamide]
6 | 35 | CCCC(C)C#Cc1ccc(C(=O)NS(=O)(=O)c2ccccc2S(N)(=O)=O)cc1OC (stereo not drawn) [Example 37, 3-Methoxy-4-(3-methylhex-1-ynyl)-N-(2-sulfamoylphenylsulfonyl)benzamide]
7 | 12 | CCCC(C)C#Cc1ccc(C(=O)NS(=O)(=O)c2ccccc2S(N)(=O)=O)cc1OCCOCC(F)(F)F (stereo not drawn) [Example 34, 4-(3-Methylhex-1-ynyl)-N-(2-sulfamoylphenylsulfonyl)-3-(2-(2,2,2-trifluoroethoxy)ethoxy)benzamide]

The next lines start with the molecule.

Row | Structure (SMILES) | IC50 [nM]
8 | CC(C)(C)C#Cc1ccc(C(=O)NS(=O)(=O)c2ccccc2S(N)(=O)=O)cc1OCC1CC1 [Example 22, 3-(Cyclopropylmethoxy)-4-(3,3-dimethylbut-1-ynyl)-N-(2-sulfamoylphenylsulfonyl)benzamide] | 13
9 | NS(=O)(=O)c1ccccc1S(=O)(=O)NC(=O)c1ccc(OCc2ccccc2)c(OCCC(F)(F)F)c1 [Example 30, 4-(Benzyloxy)-N-(2-sulfamoylphenylsulfonyl)-3-(3,3,3-trifluoropropoxy)benzamide] | 130
10 | NS(=O)(=O)c1ccccc1S(=O)(=O)NC(=O)c1ccc(-c2cc3ccccc3o2)c(OCC(F)F)c1 [Example 7, 4-(Benzofuran-2-yl)-3-(2,2-difluoroethoxy)-N-(2-sulfamoylphenylsulfonyl)benzamide] | 4.5
11 | NS(=O)(=O)c1ccccc1S(=O)(=O)NC(=O)c1ccc(-c2cc3ccccc3o2)c(OCC2CC2)c1 [Example 21, 4-(Benzofuran-2-yl)-3-(cyclopropylmethoxy)-N-(2-sulfamoylphenylsulfonyl)benzamide] | 5
12 | CC(C)(C)C#Cc1ccc(C(=O)NS(=O)(=O)c2ccccc2S(N)(=O)=O)cc1OCC(F)F [Example 6, 3-(2,2-Difluoroethoxy)-4-(3,3-dimethylbut-1-ynyl)-N-(2-sulfamoylphenylsulfonyl)benzamide] | 25
13 | NS(=O)(=O)c1ccccc1S(=O)(=O)NC(=O)c1ccc(CN2CC(F)(F)C(F)(F)C2)cc1 [Example 24, N-(2-Sulfamoylphenylsulfonyl)-4-((3,3,4,4-tetrafluoropyrrolidin-1-yl)methyl)benzamide] | 2900
14 | COc1cc(C(=O)NS(=O)(=O)c2ccccc2S(N)(=O)=O)ccc1C#Cc1ccc(C)cc1 [Example 17, 3-Methoxy-N-(2-sulfamoylphenylsulfonyl)-4-(p-tolylethynyl)benzamide] | 6.3
15 | NS(=O)(=O)c1ccccc1S(=O)(=O)NC(=O)c1ccc(C#Cc2ccc(Cl)cc2)cc1 [Example 10, 4-((4-Chlorophenyl)ethynyl)-N-(2-sulfamoylphenylsulfonyl)benzamide] | 3.7

From patent US20100292279A1, “Bis-(Sulfonylamino) Derivatives in Therapy” (ASTRAZENECA AB, priority 2009, published 2010)
